From ChEMBL document CHEMBL1133348, “Quinonic derivatives active against a virulent strain of Toxoplasma gondii. Synthesis of 2-methylfuro[2,3-g]- and [3,2-g]isoquinolinetriones” (2000)

What follows are molecules tested on THP-1 (assay: Percentage growth inhibition of Toxoplasma gondii at concentration of 2 ug/mL using an human myelomonocytic cell line THP-1). Conditions: read-out: GI.
Assay type: functional

| Structure (SMILES) | inhibition of growth at 2 µg/mL [%] |
| --- | --- |
| CCc1nc(N)nc(N)c1-c1ccc(Cl)cc1 [PYRIMETHAMINE] | 94 |
| O=C1c2ccccc2C(=O)c2cc(O)ncc21 | 80 |
| O=C1C=C(Br)C(=O)c2ccccc21 [2-Bromo-1,4-naphthoquinone] | 66 |
| Cc1cc2c(o1)C(=O)c1cc(O)ncc1C2=O | 92 |
| CCOc1cnc2c(c1C)C(=O)c1oc(C)c(C)c1C2=O | 89.5 |
| Cc1cc2c(o1)C(=O)c1cnc(O)cc1C2=O | 62 |
| CCC[C@@H]1C[C@@H](C(=O)N[C@@H]([C@H]2O[C@H](SC)[C@H](O)[C@@H](O)[C@H]2O)[C@H](C)Cl)N(C)C1 [CLINDAMYCIN] | 86 |
| Cc1nc(O)cc2c1C(=O)c1cccc(O)c1C2=O | 50 |
| Cn1cc2c(cc1=O)C(=O)c1ccccc1C2=O | 52 |
| O=C1c2cc(O)ncc2C(=O)c2c(O)cccc21 | 54 |
| Cc1cc2c(o1)C(=O)C=C(Br)C2=O | 83 |
| Nc1ccc(S(=O)(=O)Nc2ncccn2)cc1 [SULFADIAZINE] | 90 |
| O=C1C(O)=C([C@H]2CC[C@H](c3ccc(Cl)cc3)CC2)C(=O)c2ccccc21 [ATOVAQUONE] | 95 |
| Cc1c2c(cc(=O)n1C)C(=O)c1ccccc1C2=O | 56 |
| Cc1cnc2c(c1)C(=O)c1c(oc(C)c1C)C2=O | 96.5 |
